{
  "source": "patent US20260248791A1",
  "about": "“METHODS FOR TREATING DERMATOMYOSITIS WITH BREPOCITINIB” (priority 2023, published 2026)",
  "key": {"[1]": {"system": "cytokine signaling pathways that engage TYK2 and/or JAK1, including IFNα, IFNg, IL-12, and IL-23", "assay": "Cytokine signaling in human whole blood", "type": "cell-based", "conditions": "IL-12, IL-23"}, "psoriatic arthritis": {"system": "psoriatic arthritis", "assay": "Phase 2 study in psoriatic arthritis (ACR20)", "type": "in vivo, human", "conditions": "30 mg; after 4 weeks; psoriatic arthritis patients", "excerpt": "As part of the clinical development program for oral Brepocitinib, a number of Phase 1 and Phase 2 studies have been completed or have a report in preparation. […] The multiple autoimmune diseases for which there is observed clinical efficacy data for Brepocitinib have mechanistic pathway similarities to DM. For example, psoriasis is driven by IL-17, which is downstream of IL-12 and IL-23 signaling via TYK2 and/or JAK1, and alopecia areata is characterized by excessive activity of IFN-γ, a type II interferon which also signals via JAK1. Of note, dose dependent reductions in IP-10 (CXCL10), an IFN-γ inducible gene, have been observed in Brepocitinib clinical studies, separating from placebo at doses ≥10 mg QD. Importantly, in these phase 2 studies, clinical response with Brepocitinib treatment rapidly separates from placebo. For example, in the phase 2 study assessing Brepocitinib's efficacy in psoriatic arthritis, Brepocitinib 30 mg achieved a 52% ACR20 response rate after 4 weeks compared to a 19% response rate in placebo patients."}, "[2]": {"system": "psoriatic arthritis, plaque psoriasis, ulcerative colitis, alopecia areata, and hidradenitis suppurativa", "assay": "5 completed Phase 2 placebo-controlled studies", "type": "in vivo, human", "conditions": "each of 5 placebo-controlled Phase 2 studies", "excerpt": "Primary efficacy endpoints with Brepocitinib. […] These clinical data, along with the overlapping pathogenic cytokine profile, support the rationale for evaluating Brepocitinib in DM."}, "[3]": {"assay": "Dissolution from immediate-release tablets", "type": "physicochemical", "conditions": "in 30 minutes; 30 mg tablet, pH 6.8 phosphate buffer, USP Apparatus II, 75 rpm", "method": "Dissolution: […] An illustrative dissolution profile for a prototype 30 mg tablet in pH 6.8 phosphate buffer using USP Apparatus II, 75 rpm is shown in FIG. 6. […] The final to-be-marketed product will be tested in all three-pH media for confirmation of rapid dissolution. The to-be-marketed product will be developed at a commercial manufacturing site that is to be decided and will be different from that used to manufacture the current clinical trial material."}, "transgenic (Tg) mice": {"system": "transgenic (Tg) mice", "assay": "6-month carcinogenicity study in Tg mice", "type": "in vivo", "conditions": "6-month Tg mouse study", "excerpt": "(§1) Immunotoxicity and phototoxicity studies have also been conducted. Carcinogenicity studies in Tg mice (6 month) and rats (2 year) have been completed. […] Brepocitinib-related findings consistent with the mechanism of action (lower thymus weight and cellularity, infection) or not relevant to humans (exacerbation of chronic progressive nephropathy in the kidney) were also observed. Fertility studies in rats have been completed."}, "male rat": {"system": "male rat", "assay": "Fertility study in rats", "type": "in vivo", "conditions": "55 mg/kg/day", "excerpt": "as §1"}, "[4]": {"system": "cytokine-induced phosphorylation of STATs in human PBMCs and whole blood", "assay": "Cytokine-induced STAT phosphorylation", "type": "cell-based", "excerpt": "(§2) Pharmacology. Brepocitinib inhibits various TYK2- and JAK1-dependent functions in different cell types such as cytokine-induced phosphorylation of signal transducer and activator transcriptions (STATs) in human peripheral blood mononuclear cells (PBMCs) and whole blood; differentiation of T helper (Th) 1, Th17, and B cells, interleukin (IL)-12-induced IFNγ production in human PBMCs; and IFN-1 gene signature induced by immune complexes in human PBMCs."}, "[5]": {"system": "T helper (Th) 1, Th17, and B cells", "assay": "Differentiation of Th1, Th17 and B cells", "type": "cell-based", "excerpt": "as §2"}, "human PBMCs": {"system": "human PBMCs", "assay": "IFN-1 gene signature induced by immune complexes", "type": "cell-based", "excerpt": "as §2"}, "[6]": {"system": "rat adjuvant-induced arthritis", "assay": "Rat adjuvant-induced arthritis disease model", "conditions": "in vivo", "excerpt": "as §2"}, "[7]": {"assay": "Tolerability in clinical studies to date", "type": "in vivo, human", "excerpt": "Brepocitinib is being evaluated in a double-blind, randomized, placebo-controlled Phase 3 study in DM (NCT0543726; VALOR Study). With a planned enrollment of 225 subjects, the VALOR Study is the largest well-controlled trial in DM to date. Adult patients with definite or probable idiopathic inflammatory myopathy (IIM), who meet the subclassification criteria for DM, have both muscle and skin disease involvement (classic DM), and are receiving (or are not responsive to or are intolerant to) corticosteroids and/or immunomodulatory/immunosuppressive therapies are eligible to enroll. The primary endpoint is the total improvement score (TIS) at week 52. The TIS is a composite endpoint based on the following six CSM scores: the Physician Global Disease Activity, the Patient Global Disease Activity, the Health Assessment Questionnaire, MMT-8, Extramuscular Disease Activity, and muscle enzymes. To evaluate the steroid-sparing effect of Brepocitinib, participants using glucocorticoids at baseline must taper to an oral glucocorticoid dose of prednisone≤5 mg/day (or equivalent) by week 36."}, "[8]": {"conditions": "human"}, "[9]": {"conditions": "human, plasma, 2 μM"}, "CYP1A2": {"target": "CYP1A2 (Homo sapiens, UniProt P05177)", "sequence (P05177 whole entry)": "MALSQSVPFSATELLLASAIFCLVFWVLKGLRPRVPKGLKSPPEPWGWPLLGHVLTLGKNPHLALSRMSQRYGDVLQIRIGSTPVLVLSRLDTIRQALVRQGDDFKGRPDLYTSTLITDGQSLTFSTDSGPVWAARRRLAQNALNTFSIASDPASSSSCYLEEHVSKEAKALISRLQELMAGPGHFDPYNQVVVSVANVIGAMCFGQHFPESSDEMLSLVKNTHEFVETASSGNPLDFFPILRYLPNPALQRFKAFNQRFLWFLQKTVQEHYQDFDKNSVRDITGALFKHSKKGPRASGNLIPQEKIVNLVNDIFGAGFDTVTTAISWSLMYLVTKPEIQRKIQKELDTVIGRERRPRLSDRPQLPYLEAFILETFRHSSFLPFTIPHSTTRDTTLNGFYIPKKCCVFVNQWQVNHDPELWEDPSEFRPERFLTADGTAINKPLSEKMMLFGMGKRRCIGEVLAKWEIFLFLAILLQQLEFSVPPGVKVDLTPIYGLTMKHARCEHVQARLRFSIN"}, "clinical": {"assay": "clinical", "conditions": "human, in vivo"}, "[10]": {"target": "breast cancer resistance protein (BCRP) (Homo sapiens, UniProt Q9UNQ0)", "sequence (Q9UNQ0 whole entry)": "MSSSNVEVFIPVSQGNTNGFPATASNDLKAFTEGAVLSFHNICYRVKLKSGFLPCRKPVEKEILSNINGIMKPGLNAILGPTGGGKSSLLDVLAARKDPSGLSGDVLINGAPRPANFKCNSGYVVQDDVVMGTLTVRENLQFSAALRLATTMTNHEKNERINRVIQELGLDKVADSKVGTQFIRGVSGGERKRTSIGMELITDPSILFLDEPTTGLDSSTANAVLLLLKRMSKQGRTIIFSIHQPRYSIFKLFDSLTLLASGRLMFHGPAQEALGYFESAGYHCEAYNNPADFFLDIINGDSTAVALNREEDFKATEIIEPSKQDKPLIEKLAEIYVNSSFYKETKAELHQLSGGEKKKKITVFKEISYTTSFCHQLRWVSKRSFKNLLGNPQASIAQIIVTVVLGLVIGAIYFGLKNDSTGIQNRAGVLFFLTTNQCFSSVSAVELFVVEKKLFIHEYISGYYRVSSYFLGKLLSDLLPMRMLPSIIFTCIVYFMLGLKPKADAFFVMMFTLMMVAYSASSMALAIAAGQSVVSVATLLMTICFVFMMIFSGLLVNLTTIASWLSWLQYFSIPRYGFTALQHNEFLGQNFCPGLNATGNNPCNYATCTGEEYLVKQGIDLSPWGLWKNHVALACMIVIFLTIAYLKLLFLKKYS", "assay": "In vitro transporter inhibition, BCRP"}, "OCT2": {"target": "OCT2 (Homo sapiens, UniProt O15244)", "sequence (O15244 whole entry)": "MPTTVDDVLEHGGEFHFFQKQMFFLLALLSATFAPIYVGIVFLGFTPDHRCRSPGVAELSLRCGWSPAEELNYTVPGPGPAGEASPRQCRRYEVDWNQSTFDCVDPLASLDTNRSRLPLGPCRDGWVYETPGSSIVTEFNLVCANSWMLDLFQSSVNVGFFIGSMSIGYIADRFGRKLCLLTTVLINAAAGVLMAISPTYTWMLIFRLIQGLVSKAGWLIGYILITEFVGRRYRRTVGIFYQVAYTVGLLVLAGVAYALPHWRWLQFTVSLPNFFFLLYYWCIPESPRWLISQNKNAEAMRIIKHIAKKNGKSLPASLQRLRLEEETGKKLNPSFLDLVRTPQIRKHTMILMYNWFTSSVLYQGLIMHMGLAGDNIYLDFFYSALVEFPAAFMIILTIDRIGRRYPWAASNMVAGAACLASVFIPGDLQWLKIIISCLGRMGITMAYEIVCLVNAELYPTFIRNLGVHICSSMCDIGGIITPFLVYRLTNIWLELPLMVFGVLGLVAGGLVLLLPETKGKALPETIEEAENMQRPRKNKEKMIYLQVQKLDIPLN", "assay": "In vitro transporter inhibition, OCT2"}, "rats": {"system": "rats", "assay": "Chronic oral toxicology study in rats", "conditions": "end of study exposure"}, "cynomolgus monkeys": {"system": "cynomolgus monkeys", "assay": "Chronic oral toxicology study in monkeys", "conditions": "end of study exposure"}, "[11]": {"assay": "Cardiovascular safety pharmacology studies", "conditions": "oral administration"}, "[12]": {"assay": "In vitro profiling for metabolic drug-drug interactions", "conditions": "direct inhibition and induction mechanisms"}},
  "data": [
    {"smiles": "Cn1cc(Nc2nccc(N3C[C@H]4CC[C@@H](C3)N4C(=O)[C@@H]3CC3(F)F)n2)cn1", "note": "[Brepocitinib, [(1S)-2,2-difluorocyclo-propyl][(1R,5S)-3-{2-[(1-methyl-1H-pyrazol-4-yl)amino]pyrimidin-4-yl}-3,8-diazabicyclo[3.2.1]oct-8-yl]methanone]", "values": [
      {"measurement": "Inhibition of cytokine signaling pathways implicated in DM", "setting": "[1]", "value": "inhibited"},
      {"measurement": "ACR20 response rate", "setting": "psoriatic arthritis", "value": 52, "unit": "%"},
      {"measurement": "Primary efficacy outcome in Phase 2 studies", "setting": "[2]", "value": "clinically meaningful and statistically significant results"},
      {"measurement": "dissolution from immediate-release (IR) tablets", "setting": "[3]", "value": "> 85", "unit": "%"},
      {"measurement": "neoplastic findings", "setting": "transgenic (Tg) mice", "value": "No Brepocitinib-related neoplastic findings"},
      {"measurement": "effects on male rat fertility", "setting": "male rat; highest dose tested", "value": "No adverse effects"},
      {"measurement": "margin to clinical exposures at highest dose tested", "setting": "male rat; male rat fertility", "value": "> 50", "unit": "fold"},
      {"measurement": "cytokine-induced phosphorylation of STATs", "setting": "[4]", "value": "inhibits"},
      {"measurement": "differentiation of Th1, Th17, and B cells", "setting": "[5]", "value": "inhibits"},
      {"measurement": "IFN-1 gene signature induced by immune complexes", "setting": "human PBMCs", "value": "inhibits"},
      {"measurement": "effect in rat adjuvant-induced arthritis", "setting": "[6]", "value": "anti-inflammatory effects"},
      {"measurement": "tolerability", "setting": "[7]", "value": "generally well-tolerated"},
      {"measurement": "dose recovered in urine", "setting": "[8]; in vivo", "value": "≤ 16", "unit": "%"},
      {"measurement": "effect of food (high-fat meal) on absorption", "setting": "[8]; in vivo", "value": "does not have a clinically relevant effect on the extent of absorption"},
      {"measurement": "fraction absorbed", "setting": "[8]; in vivo", "value": "approximately 100%"},
      {"measurement": "increase of AUC(0-∞) and Cmax with dose", "setting": "[8]; in vivo", "value": "approximately dose-proportional"},
      {"measurement": "time to steady state", "setting": "[8]; in vivo", "value": "≤ 8", "unit": "days"},
      {"measurement": "Permeability class according to the BCS criteria", "setting": "[8]; not told, po", "value": "high-permeability compound"},
      {"measurement": "fraction of unbound drug", "setting": "[9]", "value": 0.609},
      {"measurement": "in vitro fraction metabolized", "setting": "CYP1A2", "value": 0.14},
      {"measurement": "half-life", "setting": "clinical", "value": "4 to 8", "unit": "h"},
      {"measurement": "bioavailability", "setting": "clinical; absolute bioavailability", "value": "~75", "unit": "%"},
      {"measurement": "bioavailability", "setting": "clinical; bioavailability of tablets relative to solution", "value": "~96", "unit": "%"},
      {"measurement": "In vitro inhibition of BCRP", "setting": "[10]", "value": "inhibition"},
      {"measurement": "In vitro inhibition of OCT2", "setting": "OCT2", "value": "inhibition"},
      {"measurement": "AUC exposure margin, NOAEL to clinical exposure of 30 mg QD", "setting": "rats", "value": 54, "unit": "fold"},
      {"measurement": "AUC exposure margin, NOAEL to clinical exposure of 30 mg QD", "setting": "cynomolgus monkeys", "value": 7.8, "unit": "fold"},
      {"measurement": "cardiovascular safety pharmacology findings", "setting": "[11]", "value": "effects on blood pressure, heartrate, and corrected QT interval (QTc) interval were observed"},
      {"measurement": "potential to be a perpetrator of metabolic drug-drug interactions", "setting": "[12]", "value": "low potential"}
    ]}
  ]
}
